For data set [1], the system named is rheumatoid arthritis, systemic lupus erythematosus and Sjögren's syndrome. In words: Patients with rheumatoid arthritis, systemic lupus erythematosus and Sjögren's syndrome treated with the combination (Example 4). The class given is in vivo, human. Particulars: after Vitamin D deficiency corrected with high dose Vitamin D replacement. How it is done: Low levels of vitamin D have been implicated in a number of autoimmune disorders, such as rheumatoid arthritis, systemic lupus erythematosus, and Sjögren's syndrome. Patients with rheumatoid arthritis, systemic lupus erythematosus and Sjögren's syndrome were treated with a combination of weekly high doses of Vitamin D (50,000 IU) and daily doses of 400 mg of hydroxychloroquine.

For the next data set, the system named is IL-6 and IL-2. The note with it: Muller et al. 1991; cited from earlier work.
Data set [2] relates to multiple sclerosis in the murine model. Particulars: Cantorna 1996; Pedersen 2007; cited from earlier work.
Data set [3] in a line: Side effects of high-dose Vitamin D in the two ITP patients. The class given is in vivo, human. How it is done: The patient's platelet count was 215,000/mm^3 six weeks after discontinuing prednisone, indicating a regimen of hydroxychloroquine at a dose of 200 mg twice a day and Vitamin D at a dose of 50,000 IU once a week was sufficient to maintain a stable count. The patient remained stable without the administration of prednisone.
In the above examples, an association between vitamin D deficiency and immune thrombocytopenia in two patients is described. Both patients had SLE and/or Sjögren's overlap with positive serology and profound life-threatening thrombocytopenia, all of which were unaffected by conventional therapies. […] After discontinuation of supplemental Vitamin D in one patient (Example 1), the 25-OH Vitamin D normalized, but the platelet count subsequently plummeted. Resuming vitamin D supplementation restored the platelet count to the previous normal range.

Data on 1 compound can be found in patent publication US9393251B2, “Compositions and methods for treating severe thrombocytopenia related disease” (priority 2013, dated 2016).

The structures appear in SMILES notation.

`C=C1/C(=C\C=C2/CCC[C@]3(C)[C@@H]([C@H](C)CCCC(C)(C)O)CC[C@@H]23)C[C@@H](O)C[C@@H]1O` [Vitamin D, 1a,25-dihydroxy cholecalciferol]: the “response to disease modifying anti-rheumatic drugs” value in data set [1] was “enhanced”. Besides, the “production of interleukin IL-6 and IL-2 in cell cultures” value in the data set with IL-6 and IL-2 is recorded as “reduced”. Further, the “development of multiple sclerosis in the murine model” value in data set [2] was “can inhibit the development of multiple sclerosis”. The “changes in calcium, phosphate, or creatinine levels” value in data set [3] (Example 1 patient) is “no significant changes”. Further, the untoward side effects entry in data set [3] (both patients) was “neither patient experienced any untoward side effect”.
